In ChEMBL document CHEMBL1201862, “PubChem BioAssay data set” (2004):
Activity calls are given as the source filed them.

Key:
[1] = target: T1, Leucine aminopeptidase (Plasmodium falciparum 3D7, UniProt Q8IL11); assay: P. falciparum M17LAP inhibitors, primary screen, biochemical, fluorogenic H-Leu-NHMec substrate, 1536-well (AID 1619); assay type: functional
T1 sequence (Q8IL11 whole entry): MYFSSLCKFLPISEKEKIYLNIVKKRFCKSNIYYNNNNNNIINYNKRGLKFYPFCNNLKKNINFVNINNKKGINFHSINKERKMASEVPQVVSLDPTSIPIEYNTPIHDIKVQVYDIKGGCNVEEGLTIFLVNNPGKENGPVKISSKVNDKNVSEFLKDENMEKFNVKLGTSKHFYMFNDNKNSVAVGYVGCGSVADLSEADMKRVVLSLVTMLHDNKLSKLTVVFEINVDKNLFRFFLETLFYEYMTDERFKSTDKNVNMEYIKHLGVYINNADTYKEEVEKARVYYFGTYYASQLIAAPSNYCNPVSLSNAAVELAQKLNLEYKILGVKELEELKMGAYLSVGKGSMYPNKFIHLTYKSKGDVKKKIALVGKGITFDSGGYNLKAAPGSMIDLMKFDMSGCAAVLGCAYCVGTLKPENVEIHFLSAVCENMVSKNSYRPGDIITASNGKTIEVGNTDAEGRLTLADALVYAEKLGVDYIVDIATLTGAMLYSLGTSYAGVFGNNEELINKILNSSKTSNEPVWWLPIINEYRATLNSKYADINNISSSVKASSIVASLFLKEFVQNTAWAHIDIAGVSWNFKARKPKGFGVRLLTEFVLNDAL

[2] = microbe, parasite or virus in culture; assay type: functional; conditions: Mycobacterium tuberculosis
[3] = target: Induced myeloid leukemia cell differentiation protein Mcl-1 (Homo sapiens, UniProt Q07820); assay type: functional
[4] = target: T2, Histone-lysine N-methyltransferase NSD2 (Homo sapiens, UniProt O96028); assay type: biochemical
T2 sequence (O96028 whole entry): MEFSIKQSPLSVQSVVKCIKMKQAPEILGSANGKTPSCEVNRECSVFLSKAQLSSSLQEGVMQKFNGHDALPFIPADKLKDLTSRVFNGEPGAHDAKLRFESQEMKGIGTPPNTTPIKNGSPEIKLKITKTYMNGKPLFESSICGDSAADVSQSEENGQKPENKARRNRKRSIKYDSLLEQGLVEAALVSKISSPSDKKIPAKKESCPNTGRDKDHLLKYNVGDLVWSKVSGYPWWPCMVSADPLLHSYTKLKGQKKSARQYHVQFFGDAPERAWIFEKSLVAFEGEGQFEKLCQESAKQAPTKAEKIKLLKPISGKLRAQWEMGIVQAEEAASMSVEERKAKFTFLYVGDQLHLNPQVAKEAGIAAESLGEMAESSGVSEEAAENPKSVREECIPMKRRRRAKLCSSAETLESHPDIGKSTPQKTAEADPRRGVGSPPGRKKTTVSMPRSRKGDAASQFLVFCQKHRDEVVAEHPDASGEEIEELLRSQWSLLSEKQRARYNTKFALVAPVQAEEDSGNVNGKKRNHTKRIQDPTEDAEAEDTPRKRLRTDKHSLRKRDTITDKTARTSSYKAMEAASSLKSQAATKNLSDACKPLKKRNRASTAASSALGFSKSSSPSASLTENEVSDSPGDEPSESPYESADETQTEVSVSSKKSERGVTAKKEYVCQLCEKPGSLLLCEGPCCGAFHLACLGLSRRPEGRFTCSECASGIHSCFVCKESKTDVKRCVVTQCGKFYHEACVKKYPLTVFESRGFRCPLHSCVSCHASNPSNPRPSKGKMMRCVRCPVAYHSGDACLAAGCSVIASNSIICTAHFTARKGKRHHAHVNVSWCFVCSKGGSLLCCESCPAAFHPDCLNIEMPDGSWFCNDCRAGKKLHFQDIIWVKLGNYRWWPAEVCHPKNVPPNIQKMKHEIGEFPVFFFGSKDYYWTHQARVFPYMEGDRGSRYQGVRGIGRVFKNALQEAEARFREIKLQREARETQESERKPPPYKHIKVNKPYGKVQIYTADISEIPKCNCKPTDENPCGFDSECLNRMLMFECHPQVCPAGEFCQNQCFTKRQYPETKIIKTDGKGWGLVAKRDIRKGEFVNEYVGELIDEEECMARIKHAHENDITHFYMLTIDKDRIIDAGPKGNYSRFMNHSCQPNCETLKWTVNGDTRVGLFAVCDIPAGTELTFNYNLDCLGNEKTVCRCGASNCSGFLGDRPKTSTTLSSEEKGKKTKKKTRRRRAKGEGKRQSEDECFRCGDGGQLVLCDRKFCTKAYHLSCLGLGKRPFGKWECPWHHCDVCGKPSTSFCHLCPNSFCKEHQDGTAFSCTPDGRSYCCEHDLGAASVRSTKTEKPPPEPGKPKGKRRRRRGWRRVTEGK

[5] = cells; assay type: functional
[6] = P. falciparum Dd2 growth inhibitors, dose response, SYBR Green, cherry-picked samples (AID 1159567); assay type: functional, cell-based
[7] = Dd2 malaria parasite growth inhibition potency – SYBR Green, dry powder samples, dose response (AID 1159566); assay type: functional, cell-based;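 also: potency for growth inhibition with lower SYBR green DNA signal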
[8] = growth inhibition of PfATP4-mutant resistant parasites – NITD609-resistant line, SYBR Green, dry powder, dose response (AID 1159571); assay type: functional, cell-based;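 also: parasites synchronized at ring stage by sorbitol before testing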
[9] = toxicity to human HepG2 hepatoma cells – cell-based, plate reader, dry powder samples, cytotoxicity control, dose response (AID 1159569); assay type: functional;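 also: inhibitor potency with signal falling toward the positive control level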
[10] = growth inhibition of yeast DHODH-expressing 3D7 parasites – SYBR Green, dry powder samples, dose response (AID 1159570); assay type: functional, cell-based;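 also: parasite growth measured after 72 hours of compound exposure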

Chain of Induced myeloid leukemia cell differentiation protein Mcl-1 (Q07820 whole entry): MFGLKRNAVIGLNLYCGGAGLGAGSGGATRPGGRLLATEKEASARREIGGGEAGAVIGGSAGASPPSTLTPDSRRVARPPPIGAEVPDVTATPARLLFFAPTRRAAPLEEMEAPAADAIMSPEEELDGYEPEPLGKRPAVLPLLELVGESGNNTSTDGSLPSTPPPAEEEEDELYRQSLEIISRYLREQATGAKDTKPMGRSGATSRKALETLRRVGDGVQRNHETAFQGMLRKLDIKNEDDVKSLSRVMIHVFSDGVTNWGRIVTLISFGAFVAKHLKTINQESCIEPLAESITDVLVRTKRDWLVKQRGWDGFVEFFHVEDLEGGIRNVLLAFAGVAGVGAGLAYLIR

Structure (SMILES) | AC50 [6] | AC50 [7] | AC50 [8] | AC50 [9] | AC50 [10] | further results
O=C(CN1C(=O)C2CC=CCC2C1=O)NCC1COc2ccccc2O1 (stereo not given) |  |  |  |  |  | IC50 [1]: 8.66 µM (active)
Cc1cc(O)nc(SCC(=O)Nc2cccc3ccccc23)c1C#N |  |  |  |  |  | IC50 [1]: 2.2 µM (active)
C=CCc1c(C)nc(SC)nc1Nc1ccc(C(C)=O)cc1 |  |  |  |  |  | CC50 [2]: > 40 µM (active)
CCN(c1cccc(C)c1)S(=O)(=O)c1ccc2[nH]c(=O)c(=O)[nH]c2c1 |  |  |  |  |  | IC50 [1]: 1.62 µM (active)
O=C1Oc2ccccc2C(=O)/C1=C/c1c[nH]c2ccccc12 |  |  |  |  |  | CC50 [2]: 30.9 µM (active); IC50 [3]: 5.56 µM (active)
CCN1CCC(CNCc2cn(-c3ccc(OC)cc3)nc2-c2ccccc2Cl)C1 (stereo not given) |  |  |  |  |  | AC50 [4]: > 20 µM (inactive)
CCCN(CCC)CCCNC(=O)c1cn(CC)c2ccc(S(=O)(=O)N3CCc4ccccc4C3)cc2c1=O |  |  |  |  |  | AC50 [4]: > 20 µM (inactive)
CCCCN1C(=O)NC(=O)/C(=C/c2ccc[nH]2)C1=O |  |  |  |  |  | CC50 [2]: > 40 µM (active); IC50 [5]: 1.46 µM (active)
C[C@@H]1CN([C@@H](C)CO)C(=O)c2c(c3ccccc3n2C)-c2ccccc2CO[C@@H]1CN(C)C(=O)c1cc(Cl)cc(Cl)c1 | 2.11 µM (active) | 1.88 µM (active) | 1500 nM (active) | 22.4 µM (active) | 2.02 µM (active) | 
COc1ccc2c3c(n(C)c2c1)[C@@H](CO)NCC31CCN(Cc2ccc(-c3ccccn3)cc2)CC1 | 0.696 µM (active) | 0.44 µM (active) | 560 nM (active) | 19.4 µM (active) | 0.447 µM (active) | 
C[C@@H]1CN([C@@H](C)CO)C(=O)c2c(c3ccccc3n2C)-c2ccccc2CO[C@@H]1CN(C)Cc1ccc(Oc2ccccc2)cc1 | 1.3 µM (active) | 0.59 µM (active) | 906 nM (active) | 22.8 µM (active) | 3.44 µM (active) | 
O=C(Nc1ccc(-c2ccccc2)cc1)[C@H]1[C@H](CO)[C@H]2Cn3c(cccc3=O)[C@@H]1N2Cc1ccccc1 | 1.44 µM (active) | 1.03 µM (active) | 921 nM (active) | 48.4 µM (active) | 1.24 µM (active) | 
C[C@@H]1CN([C@H](C)CO)C(=O)c2ccccc2-c2ccccc2CO[C@H]1CN(C)C(=O)Nc1cccc(C(F)(F)F)c1 | 1.45 µM (active) | 1.03 µM (active) | 3230 nM (active) | 86.3 µM (active) | 1.19 µM (active) | 
